Data reported in patent publication US12213985B2, “Oral cannabinoid formulations” (Jazz Pharmaceuticals Research UK Limited, priority 2016, dated 2025).
Where a SMILES comes first, the peptide text is derived from it.

Assays:
[1] = derived from FDA website; cited from earlier work
[2] = Physical stability of Neotame formulations, open bottles standing 2 weeks; type: physicochemical
Protocol: The 25 mg/ml and 100 mg/ml batches were tested for physical stability by opening the bottles and allowing them to stand for 2 weeks to let the ethanol evaporate. This was done as a worst case in-use scenario where the bottle is repeatedly opened and closed multiple times during use. The batches were monitored for any signs of precipitation and the ethanol content measured.

[3] = Miscibility of alternative solvents with sesame oil; type: physicochemical; conditions: range of concentrations (0.5-10%) tested
[4] = Lowest ethanol concentration to solubilise Advantame, storage and observation for precipitation (ET03/015); type: physicochemical; conditions: Advantame 0.0025% w/v in sesame oil formulation
Protocol: An experiment (ET03/015) was carried out to determine the lowest ethanol concentration required to solubilise Advantame. Table 3 details the batches made with various ethanol concentrations ranging from 0.5% to 3.0% v/v.
These batches were stored at 25° C./60% RH and 40° C./75% RH for up to 4 weeks and observed for any signs of precipitation. There was no precipitation observed over the period assessed. Therefore it was concluded that Advantame can be used as a sweetener and can be solubilised at ethanol concentration of at least as low as 0.5% v/v. i.e. the concentration of ethanol required in the formulation can be reduced by a factor of 20 compared to a sucralose containing formulation.

| Compound | Acceptable Daily Intake [1] [mg/kg/day] | other results |
| --- | --- | --- |
| COC(=O)[C@H](Cc1ccccc1)NC(=O)[C@H](CC(=O)O)NCCC(C)(C)C [Neotame, N—[N-(3,3-dimethylbutyl)-L-α-aspartyl]-L-phenylalanine 1-methyl ester] | 0.3 | concentration at which Neotame can be physically solubilised ([2]; in ethanol): up to 0.01 % w/v; solubility in ethanol ([2]; room temperature): freely soluble |
| COC(=O)[C@H](Cc1ccccc1)NC(=O)[C@@H](N)CC(=O)O [Aspartame] (H-Asp-Phe-OMe) | 50 | – |
| CC(O)CO (centres unmarked) [propylene glycol] | – | miscibility with sesame oil [3]: not satisfactory |
| OCC(O)CO [glycerin] | – | miscibility with sesame oil [3]: not satisfactory |
| COC(=O)[C@H](Cc1ccccc1)NC(=O)[C@H](CC(=O)O)NCCCc1ccc(OC)c(O)c1 [Advantame, N—[N-3-(3-hydroxy-4-methoxyphenyl)propyl-α-L-aspartyl]-L-phenylalanine 1-methyl ester] | 32.8 | ethanol concentration at which the sweetener can be solubilised [4]: ≤ 0.5 % v/v |
| O.O.O=C1NS(=O)(=O)c2ccccc21 [Saccharin Dihydrate] | 15 | – |
| O=C1NS(=O)(=O)c2ccccc21 [Saccharin] | 15 | – |
| OC[C@H]1O[C@H](O[C@]2(CCl)O[C@H](CCl)[C@@H](O)[C@@H]2O)[C@H](O)[C@@H](O)[C@H]1Cl [Sucralose, reference compound] | 5 | – |
